Results: patent US7316816B2, “Temperature and pH sensitive copolymers” (Agency for Science Technology and Research, priority 2004, dated 2008)

What was measured:
[1] = In vitro drug release by dialysis; type: physicochemical; details: pH 7.4 and 6.0
Procedure: DOX release from the nanoparticles was studied at pH 6.0, 6.6 and 7.4. A certain amount of DOX-loaded freeze-dried nanoparticles was dispersed in 200 μL of the respective buffer solution and allowed to stabilize for 30 minutes before being placed in a dialysis membrane with a molecular weight cut-off of 2000 (Spectra/Por). The dialysis bag was then immersed in 25 mL of PBS with pH 6.0, 6.6 or 7.4 at 37° C. The samples were drawn at specific time intervals and the drug concentration was analyzed using the UV-VIS spectrophotometer as stated in paragraph A(vi) of the present example.

[2] = cited from earlier work

| effect of pH on release of free DOX from the dialysis bag [1] | SMILES | pKa [2] |
| --- | --- | --- |
| no significant effect of pH | COc1cccc2c1C(=O)c1c(O)c3c(c(O)c1C2=O)C[C@@](O)(C(=O)CO)C[C@@H]3O[C@H]1C[C@H](N)[C@H](O)[C@H](C)O1 [DOX, doxorubicin] | – |
| – | Nc1nc2ncc(CNc3ccc(C(=O)N[C@@H](CCC(=O)O)C(=O)O)cc3)nc2c(=O)[nH]1 [Folic acid] | ~5.4 |
